Some test systems named below: OVCAR-5 ovarian; BT-549 breast; SN12C renal; SK-MEL-2 melanoma; M14 melanoma; MDA-N; SF-295 CNS; OVCAR-4 ovarian; NCI/ADR-RES ovarian; DU-145 prostate.
What all share (experiment): NCI anticancer screen, dose series, 48 h

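Five compound concentrations were applied to cells in 96-well plates for 48 hours; endpoints were derived by simple linear interpolation of the resulting dose-response curve. TGI is the concentration that stops growth completely.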

Turning to `COc1cc(OC)c2c3c(OC)cc(OC)c4c(=O)c(O)c(C[C@@H](C)O)c(c5c(C[C@@H](C)O)c(O)c(=O)c1c25)c43`, the TGI is over 100 µM in the assay with OVCAR-5 ovarian; 46 µM with BT-549 breast; 68.6 µM in the assay on SN12C renal; 68 µM in the assay on SK-MEL-2 melanoma; 47 µM in the assay on M14 melanoma; 34 µM in the assay on MDA-N. For the same compound, the TGI with SF-295 CNS, in the assay on OVCAR-4 ovarian, in the assay with NCI/ADR-RES ovarian and in the assay on DU-145 prostate was over 100 µM in each case.

For the compound `O=C(NC(=O)c1cc(-c2ccccc2)n[nH]1)c1ccccc1`, the TGI in the assay on OVCAR-5 ovarian, in the assay on BT-549 breast, with SN12C renal, in the assay on SK-MEL-2 melanoma, in the assay on M14 melanoma and with MDA-N was over 100 µM throughout. Also, the TGI in the assay with SF-295 CNS, in the assay with OVCAR-4 ovarian, with NCI/ADR-RES ovarian and with DU-145 prostate was over 100 µM each time.

On to `CC(=O)Oc1c2c(c3n(c1=O)CCCC3)C(=O)N(c1ccccc1)C2=O`, for which the TGI in the assay with OVCAR-5 ovarian, in the assay with BT-549 breast, in the assay with SN12C renal, in the assay on SK-MEL-2 melanoma, in the assay with M14 melanoma and with MDA-N was over 100 µM throughout. The TGI with SF-295 CNS, in the assay with OVCAR-4 ovarian, in the assay with NCI/ADR-RES ovarian and in the assay on DU-145 prostate was over 100 µM throughout.

As to `O=C1CC[C@@]2(O)[C@H]3Cc4ccc(-c5ccccc5)c5c4[C@@]2(CCN3CC2CC2)[C@H]1O5`, the TGI in the assay with OVCAR-5 ovarian was found to be 35.4 µM; with BT-549 breast, 31.3 µM; in the assay on SN12C renal, 72.4 µM; with SK-MEL-2 melanoma, 33.7 µM; with M14 melanoma, 34 µM; in the assay on MDA-N it was 32.9 µM. In addition, the TGI in the assay on SF-295 CNS was 33.6 µM; with OVCAR-4 ovarian, over 100 µM; in the assay on NCI/ADR-RES ovarian, 33.7 µM; in the assay on DU-145 prostate, 62.7 µM.

Turning to `COc1cc2c3c(n(C)c(=O)c2cc1OC)-c1cc2c(cc1/C3=C\CCCI)OCO2`, the TGI in the assay on OVCAR-5 ovarian, in the assay with BT-549 breast, in the assay with SN12C renal, in the assay with SK-MEL-2 melanoma, in the assay with M14 melanoma and in the assay on MDA-N was over 100 µM throughout. In addition, the TGI was over 41.6 µM in the assay with SF-295 CNS, over 100 µM with OVCAR-4 ovarian, over 100 µM in the assay on NCI/ADR-RES ovarian and over 100 µM in the assay on DU-145 prostate.

Regarding `Cc1cc(S(=O)(=O)Nc2nc3ccccc3nc2-c2ccc(Cl)cc2)c(S)cc1Cl`, the TGI in the assay on OVCAR-5 ovarian is 33.8 µM; in the assay on BT-549 breast, 50.6 µM; in the assay on SN12C renal, 56.7 µM; in the assay on SK-MEL-2 melanoma, 29.2 µM; in the assay with M14 melanoma, 39.5 µM; in the assay with MDA-N, 35.6 µM. The TGI came out at 35 µM in the assay on SF-295 CNS, 28.2 µM in the assay on OVCAR-4 ovarian, 36.9 µM in the assay on NCI/ADR-RES ovarian and 29.9 µM in the assay with DU-145 prostate.

In the case of `COc1ccc(N=NC(=O)NC(CC(C)C)C(N)=O)cc1` (stereo not given), the TGI in the assay on OVCAR-5 ovarian is over 100 µM; with BT-549 breast, over 100 µM; with SN12C renal it was over 31.6 µM; in the assay with SK-MEL-2 melanoma, over 100 µM; in the assay with M14 melanoma, over 100 µM; in the assay on MDA-N, over 31.6 µM. The TGI in the assay with SF-295 CNS is over 100 µM; with OVCAR-4 ovarian, over 31.6 µM; in the assay on NCI/ADR-RES ovarian it was over 100 µM; in the assay with DU-145 prostate, over 100 µM.

In the case of `Cn1ncc2c(Cl)ncnc21`, the TGI with OVCAR-5 ovarian, in the assay on BT-549 breast, in the assay with SN12C renal, with SK-MEL-2 melanoma, in the assay with M14 melanoma and with MDA-N was over 100 µM throughout. Further, the TGI in the assay with SF-295 CNS, in the assay with OVCAR-4 ovarian, in the assay with NCI/ADR-RES ovarian and in the assay with DU-145 prostate was over 100 µM in each case.

Consider `NC1=Nc2cc(Cl)ccc2Sc2nc3ccccc3n21`, for which the TGI with OVCAR-5 ovarian, in the assay on BT-549 breast, with SN12C renal, with SK-MEL-2 melanoma, in the assay on M14 melanoma and in the assay on MDA-N was over 100 µM each time. The TGI in the assay on SF-295 CNS, with OVCAR-4 ovarian, in the assay on NCI/ADR-RES ovarian and in the assay with DU-145 prostate was over 100 µM each time.

Take `Cc1ccc(C(=O)Nc2ccc(CP(=O)(O)O)cc2CP(=O)(O)O)cc1NC(=O)Nc1cc(C(=O)Nc2ccc(CP(=O)(O)O)cc2CP(=O)(O)O)ccc1C`: the TGI with OVCAR-5 ovarian, in the assay on BT-549 breast, in the assay with SN12C renal, with SK-MEL-2 melanoma, in the assay with M14 melanoma and with MDA-N was over 100 µM in each case. Moreover, the TGI in the assay on SF-295 CNS, with OVCAR-4 ovarian, in the assay on NCI/ADR-RES ovarian and in the assay on DU-145 prostate was over 100 µM throughout.

For `Cc1ccc(-c2nc(N/N=C/c3ccc(O)cc3)c3ccccc3n2)cc1`, the TGI in the assay on OVCAR-5 ovarian is 61.9 µM; with BT-549 breast it was over 100 µM; in the assay on SN12C renal it was 25.4 µM; in the assay on SK-MEL-2 melanoma, 32.7 µM; in the assay on M14 melanoma it was 18.9 µM; in the assay on MDA-N it was 23.7 µM. Further, the TGI in the assay on SF-295 CNS was 89.5 µM; in the assay on OVCAR-4 ovarian, 16.2 µM; in the assay on NCI/ADR-RES ovarian, over 100 µM; in the assay on DU-145 prostate, 75.2 µM.

Take `CC(=O)Nc1ccc2[nH]c(C(=O)N3CC(CCl)c4c3cc([N+](=O)[O-])c3ccccc43)cc2c1` (stereo not given): the TGI in the assay on OVCAR-5 ovarian is 96.9 µM; with BT-549 breast it was over 100 µM; in the assay on SN12C renal, over 100 µM; in the assay on SK-MEL-2 melanoma it was over 69.5 µM; with M14 melanoma, over 100 µM; in the assay with MDA-N, over 100 µM. The TGI in the assay with SF-295 CNS, in the assay with OVCAR-4 ovarian, with NCI/ADR-RES ovarian and in the assay on DU-145 prostate was over 100 µM each time.

On to `O=C(N=c1ccc2nc(=O)[nH]n(O)c-2c1)C(F)(F)F`, for which the TGI in the assay with OVCAR-5 ovarian, with BT-549 breast, with SN12C renal, with SK-MEL-2 melanoma, in the assay on M14 melanoma and in the assay on MDA-N was over 100 µM in each case. In addition, the TGI in the assay with SF-295 CNS, in the assay with OVCAR-4 ovarian, in the assay on NCI/ADR-RES ovarian and in the assay on DU-145 prostate was over 100 µM throughout.

Source of the values: PubChem BioAssay (NCI).
